Tested on: not given
Assay: not given
Settings: not given
For `COC1c2cc(NC(=O)c3ccc(C(=O)O)cc3)ccc2CC1C` (stereo not drawn) [Compound 36m, 4-((3-Methoxy-2-methyl-2,3-dihydro-1H-inden-5-yl)carbamoyl)benzoic acid], the melting point was > 250 °C.
For `COC1CCc2ccc(NC(=O)c3ccc(C(=O)O)cc3)cc21` (stereo not drawn) [Compound 36b, 4-((3-Methoxy-2,3-dihydro-1H-inden-5-yl)carbamoyl)benzoic acid], the melting point was > 250 °C.
With `CC1Cc2ccc(NC(=O)c3ccc(C(=O)O)cc3)cc2C1=O` (stereo not drawn) [Compound 36k, 4-((2-Methyl-3-oxo-2,3-dihydro-1H-inden-5-yl)carbamoyl)benzoic acid] the melting point was > 250 °C.
In the case of `CCOC1Cc2ccc(NC(=O)c3ccc(C(=O)O)cc3)cc2C1` (stereo not drawn) [Compound 36g, 4-((2-Ethoxy-2,3-dihydro-1H-inden-5-yl)carbamoyl)benzoic acid], the melting point is reported as > 250 °C.
For `CC(C)C1Cc2ccc(NC(=O)c3ccc(C(=O)O)cc3)cc2C1` (stereo not drawn) [Compound 36h, 4-((2-Isopropyl-2,3-dihydro-1H-inden-5-yl)carbamoyl)benzoic acid], the melting point was > 250 °C.
With `CC(C)C1=Cc2cc(NC(=O)c3ccc(C(=O)O)cc3)ccc2C1` [Compound 36j, 4-((2-Isopropyl-1H-inden-5-yl)carbamoyl)benzoic acid] the melting point was > 250 °C.
With `O=C(O)c1ccc(C(=O)Nc2ccc3c(c2)CCC3)cc1` [Compound 36a, 4-((2,3-Dihydro-1H-inden-5-yl)carbamoyl)benzoic acid] the melting point was > 250 °C.
In the case of `CCOC1CCc2ccc(NC(=O)c3ccc(C(=O)O)cc3)cc21` (stereo not drawn) [Compound 36c], the melting point is reported as > 250 °C.

Tested on: NB4 cells
Assay: Cell differentiation assay (CD11b, FACS), NB4
Format: cell-based, human
Settings: 5 μM
Method: (§1) The effects of 36a–g on the differentiation of HL60 and NB4 cells were then assessed.
(§2) Cells (1 × 10^6/mL) were treated with compounds at different concentrations based on IC50 in Table 2 […]. After the treatment, cells were washed twice with PBS and then fixed with 75% alcohol overnight at −20 °C. The fixed cells were washed with PBS and blocked with 95 μL 3% BSA in PBS for 45 min at room temperature. The cells were incubated with 5 μL CD11b-PE at 4 °C for 45 min with protection from light. The antigens were then determined by a FACSCalibur flow cytometer (BD Biosciences Pharmingen, San Diego, CA, USA). The percentages of positive cells were quantitated using CellQuest Pro software. Cells stained with mouse IgG-PE served as negative controls. Both CD11b-PE and mouse IgG-PE antibodies were purchased from BD Biosciences. At least 10,000 cells were analyzed for each data point.
With `O=C(O)c1ccc(C(=O)Nc2ccc3c(c2)CCC3)cc1` [Compound 36a, 4-((2,3-Dihydro-1H-inden-5-yl)carbamoyl)benzoic acid] the “CD11b (%) NB4” value was 0.97 (5 μM) %.

Same assay, conditions: 10 μM
In the case of `CC1(C)CCC(C)(C)c2cc(NC(=O)c3ccc(C(=O)O)cc3)ccc21` [AM80, reference compound], the “CD11b (%) NB4” value is reported as 94.93 (10 μM) %.

Same assay, conditions: 20 μM
For `CCOC1Cc2ccc(NC(=O)c3ccc(C(=O)O)cc3)cc2C1` (stereo not drawn) [Compound 36g, 4-((2-Ethoxy-2,3-dihydro-1H-inden-5-yl)carbamoyl)benzoic acid], the “CD11b (%) NB4” value was 0.49 (20 μM) %.

Tested on: NB4 cells
Assay: Inhibition of cell proliferation assay (SRB), NB4
Format: cell-based, human
Settings: Homo sapiens, NB-4, 72 h, NB4 cells, 72 hours, SRB; read-out: IC50 cell proliferation NB4
Method: (§3) Human promyelocytic leukemia cell lines HL60 and NB4 were employed to determine the effects of the derivatives on cell proliferation. […] Alkoxy-substitution at the 2-position (i.e., compounds 36f, 36g) harmed the cell proliferation inhibitory activity of the compounds in both cell lines while the isopropyl group at the same position (compound 36h) is favourable. The extension of the π system by an alkenyl bond or a ketone group, as in 36j–l, didn’t affect the compounds’ inhibitory activity in HL60 cells but nulified their activity in NB4 cells. The indene ring tolerates the dual-introduction of a small alkoxyl and an alkyl group at 1- and 2-position, respectively, to retain the antiproliferative activity in HL60 cells.
(§4) Cells were seeded in 96-well plates (Corning Inc.) with a density of 2500 cells (NB4 or HL60) per well for overnight. Then, cells were exposed to each of the test compounds 36a–36p in gradient concentration of 10^−9, 10^−8, 10^−7, 10^−6, 10^−5 mol/L. Control cultures were treated with the same volume of DMSO. After 72 hours of incubation, the cell density in each well were fixed by trichloroacetic acid and then measured using the SRB (sulforhodamine B) method. After rinsing, the SRB was solubilized in TrisHCl, and the optical density of each culture was determined with a Bio-Tek Elx 800 absorbance microplate reader (BioTek, Shoreline, WA, USA). The OD of the treated cultures was divided by that of the control cultures treated with solvent alone.
In the case of `COC1c2cc(NC(=O)c3ccc(C(=O)O)cc3)ccc2CC1C` (stereo not drawn) [Compound 36m, 4-((3-Methoxy-2-methyl-2,3-dihydro-1H-inden-5-yl)carbamoyl)benzoic acid], the IC50 is reported as > 50 µM.
For `COC1CCc2ccc(NC(=O)c3ccc(C(=O)O)cc3)cc21` (stereo not drawn) [Compound 36b, 4-((3-Methoxy-2,3-dihydro-1H-inden-5-yl)carbamoyl)benzoic acid], the IC50 was 35.4 µM.
With `CC1Cc2ccc(NC(=O)c3ccc(C(=O)O)cc3)cc2C1=O` (stereo not drawn) [Compound 36k, 4-((2-Methyl-3-oxo-2,3-dihydro-1H-inden-5-yl)carbamoyl)benzoic acid] the IC50 was > 50 µM.
Compound `CCOC1Cc2ccc(NC(=O)c3ccc(C(=O)O)cc3)cc2C1` (stereo not drawn) [Compound 36g, 4-((2-Ethoxy-2,3-dihydro-1H-inden-5-yl)carbamoyl)benzoic acid] has an IC50 of 22 µM.
`CC(C)C1Cc2ccc(NC(=O)c3ccc(C(=O)O)cc3)cc2C1` (stereo not drawn) [Compound 36h, 4-((2-Isopropyl-2,3-dihydro-1H-inden-5-yl)carbamoyl)benzoic acid] showed an IC50 of 2.61 µM.
With `CC(C)C1=Cc2cc(NC(=O)c3ccc(C(=O)O)cc3)ccc2C1` [Compound 36j, 4-((2-Isopropyl-1H-inden-5-yl)carbamoyl)benzoic acid] the IC50 was > 50 µM.
For `O=C(O)c1ccc(C(=O)Nc2ccc3c(c2)CCC3)cc1` [Compound 36a, 4-((2,3-Dihydro-1H-inden-5-yl)carbamoyl)benzoic acid], the IC50 was 6.97 µM.

Same assay, conditions: Homo sapiens, NB-4, 72 h, read-out: IC50 cell proliferation NB4
Compound `CC1(C)CCC(C)(C)c2cc(NC(=O)c3ccc(C(=O)O)cc3)ccc21` [AM80, reference compound] has an IC50 of 13.3 µM.

Tested on: HL60 cells
Assay: Cell differentiation assay (CD11b, FACS), HL60
Format: cell-based, human
Settings: 10 μM
Method: as §1, §2
In the case of `CC1(C)CCC(C)(C)c2cc(NC(=O)c3ccc(C(=O)O)cc3)ccc21` [AM80, reference compound], the “CD11b (%) HL60” value is reported as 4.59 (10 μM) %.

Same assay, conditions: 50 μM
In the case of `CCOC1Cc2ccc(NC(=O)c3ccc(C(=O)O)cc3)cc2C1` (stereo not drawn) [Compound 36g, 4-((2-Ethoxy-2,3-dihydro-1H-inden-5-yl)carbamoyl)benzoic acid], the “CD11b (%) HL60” value is reported as 5.82 (50 μM) %.
With `O=C(O)c1ccc(C(=O)Nc2ccc3c(c2)CCC3)cc1` [Compound 36a, 4-((2,3-Dihydro-1H-inden-5-yl)carbamoyl)benzoic acid] the “CD11b (%) HL60” value was 1.13 (50 μM) %.

Tested on: HL60 cells
Assay: Inhibition of cell proliferation assay (SRB), HL60
Format: cell-based
Settings: Homo sapiens, HL-60, 72 h, read-out: IC50 cell proliferation HL60
Method: as §3, §4
Work on `CC1(C)CCC(C)(C)c2cc(NC(=O)c3ccc(C(=O)O)cc3)ccc21` [AM80, reference compound] yielded an IC50 of 0.17 µM.

Same assay, conditions: Homo sapiens, HL-60; HL60 cells, 72 hours, SRB; read-out: IC50 cell proliferation HL60
In the case of `COC1c2cc(NC(=O)c3ccc(C(=O)O)cc3)ccc2CC1C` (stereo not drawn) [Compound 36m, 4-((3-Methoxy-2-methyl-2,3-dihydro-1H-inden-5-yl)carbamoyl)benzoic acid], the IC50 is reported as 0.43 µM.
In the case of `COC1CCc2ccc(NC(=O)c3ccc(C(=O)O)cc3)cc21` (stereo not drawn) [Compound 36b, 4-((3-Methoxy-2,3-dihydro-1H-inden-5-yl)carbamoyl)benzoic acid], the IC50 is reported as 0.13 µM.
In the case of `CC1Cc2ccc(NC(=O)c3ccc(C(=O)O)cc3)cc2C1=O` (stereo not drawn) [Compound 36k, 4-((2-Methyl-3-oxo-2,3-dihydro-1H-inden-5-yl)carbamoyl)benzoic acid], the IC50 is reported as 2.66 µM.
In the case of `CCOC1Cc2ccc(NC(=O)c3ccc(C(=O)O)cc3)cc2C1` (stereo not drawn) [Compound 36g, 4-((2-Ethoxy-2,3-dihydro-1H-inden-5-yl)carbamoyl)benzoic acid], the IC50 is reported as > 50 µM.
Work on `CC(C)C1Cc2ccc(NC(=O)c3ccc(C(=O)O)cc3)cc2C1` (stereo not drawn) [Compound 36h, 4-((2-Isopropyl-2,3-dihydro-1H-inden-5-yl)carbamoyl)benzoic acid] yielded an IC50 of 0.91 µM.
For `CC(C)C1=Cc2cc(NC(=O)c3ccc(C(=O)O)cc3)ccc2C1` [Compound 36j, 4-((2-Isopropyl-1H-inden-5-yl)carbamoyl)benzoic acid], the IC50 was 2.37 µM.
In the case of `O=C(O)c1ccc(C(=O)Nc2ccc3c(c2)CCC3)cc1` [Compound 36a, 4-((2,3-Dihydro-1H-inden-5-yl)carbamoyl)benzoic acid], the IC50 is reported as > 50 µM.

Target: T1, RARα (RAR alpha LBD-GST) (Homo sapiens, UniProt P10276)
T1 construct: A mixture of 5 nM RAR alpha LBD-GST, 5 nM TbAnti-GST antibody, 50 nM Fluorescein-D22 was added to the wells; purchased Invitrogen
T1 sequence (P10276 183-417 limits assumed): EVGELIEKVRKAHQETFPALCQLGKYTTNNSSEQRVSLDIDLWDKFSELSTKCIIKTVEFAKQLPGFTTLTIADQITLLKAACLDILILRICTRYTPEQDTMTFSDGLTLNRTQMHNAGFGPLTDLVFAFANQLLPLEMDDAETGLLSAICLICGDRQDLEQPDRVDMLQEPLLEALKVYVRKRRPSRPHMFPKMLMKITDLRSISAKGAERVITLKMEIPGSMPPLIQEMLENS
Assay: Receptor binding assay (LanthaScreen TR-FRET RAR alpha Coactivator Assay)
Settings: 1 h incubation, AM80 positive control, read-out: RARα binding affinity EC50
Method: The obtained target compounds were tested for their binding affinities to RARα using a time resolved fluorescence resonance energy transfer (TR-FRET) assay with AM80 as the positive control.
All synthesized compounds were tested for their binding affinity by using time resolved fluorescence resonance energy transfer (TR-FRET) assay, which used a LanthaScreen® TR-FRET RAR alpha Coactivator Assay Kit (Invitrogen, Carlsbad, CA, USA). Briefly, all experiments were performed in black 384-well low-volume plates (Corning Inc., Corning, NY, USA) in dark at room temperature. The final assay volume was 20 μL. All dilutions were made in assay buffer (TR-FRET Coregulator Buffer D). The final DMSO concentration was 1%. A mixture of 5 nM RAR alpha LBD-GST, 5 nM TbAnti-GST antibody, 50 nM Fluorescein-D22 was added to the wells. The only variable is the agonist concentration (6.1 × 10^−11~1.0 × 10^−6 M final concentrations of each retinoid). […] Data were analyzed by using GraphPad Prism software (GraphPad Software, Inc., La Jolla, CA, USA) and FRET signal was determined for all treatments by dividing 520 nm/495 nm signals. Graphs plotted as fold change of FRET signal for compounds treatment over DMSO only treatment.
With `COC1c2cc(NC(=O)c3ccc(C(=O)O)cc3)ccc2CC1C` (stereo not drawn) [Compound 36m, 4-((3-Methoxy-2-methyl-2,3-dihydro-1H-inden-5-yl)carbamoyl)benzoic acid] the EC50 was 0.292 µM.
Compound `COC1CCc2ccc(NC(=O)c3ccc(C(=O)O)cc3)cc21` (stereo not drawn) [Compound 36b, 4-((3-Methoxy-2,3-dihydro-1H-inden-5-yl)carbamoyl)benzoic acid] has an EC50 of 0.13 µM.
In the case of `CCOC1Cc2ccc(NC(=O)c3ccc(C(=O)O)cc3)cc2C1` (stereo not drawn) [Compound 36g, 4-((2-Ethoxy-2,3-dihydro-1H-inden-5-yl)carbamoyl)benzoic acid], the EC50 is reported as > 1 µM.
Work on `CC(C)C1Cc2ccc(NC(=O)c3ccc(C(=O)O)cc3)cc2C1` (stereo not drawn) [Compound 36h, 4-((2-Isopropyl-2,3-dihydro-1H-inden-5-yl)carbamoyl)benzoic acid] yielded an EC50 of 0.043 µM.
Work on `CC(C)C1=Cc2cc(NC(=O)c3ccc(C(=O)O)cc3)ccc2C1` [Compound 36j, 4-((2-Isopropyl-1H-inden-5-yl)carbamoyl)benzoic acid] yielded an EC50 of 0.00353 µM.
`O=C(O)c1ccc(C(=O)Nc2ccc3c(c2)CCC3)cc1` [Compound 36a, 4-((2,3-Dihydro-1H-inden-5-yl)carbamoyl)benzoic acid] gave an EC50 of 0.0121 µM.

From PMC6155728, “Design, Synthesis and Evaluation of Indene Derivatives as Retinoic Acid Receptor α Agonists” (Molecules : A Journal of Synthetic Chemistry and Natural …, 2016)
